In one assay the test system is OIC mice. Description: Colonic transit time (latency to glass bead expulsion) in opioid-induced constipation (OIC) mouse model. It is filed as in vivo. The conditions noted are these: 10 mg/kg intraperitoneally, single administration at day 7, positive control (FIG. 5). On the procedure:
FIG. 4 provides the overall experimental design in assessing the effects of GALR2 agonists described herein in an opioid-induced constipation (OIC) mouse model. The upward arrows (seven total) represent the daily administration of the GALR2 agonist. The GALR2 agonist that was administered to the relevant groups was pegylated. Control animals received either a vehicle control (negative control) or bisacodyl (positive control). Animals that received a single administration (i.e., at day 7) of naloxone methiodide were also used as a positive control. At 10 minutes post last administration, each of the animals received an administration of morphine (3 mg/kg; subcutaneously). […] Colonic transit time was assessed by measuring the latency to glass bead expulsion by the animals.
FIGS. 9A and 9B show the effect of dosing schedule and administration route on GALR2 agonist-mediated regulation of colonic transit time in OIC mice. […] Colonic transit time was assessed by measuring the latency to glass bead expulsion by the animals. […]
To assess whether the GALR2 agonists described herein could be useful in treating opioid-induced constipation, an OIC mouse model was used. […] Then, a glass bead was rectally inserted, and colonic transit time was assessed by measuring the latency to glass bead expulsion by the animals. […]

In another assay the target is T1, hGALR2 (Homo sapiens, UniProt O43603).
T1 construct: expressed in transfected cells
T1 sequence (O43603 1-387): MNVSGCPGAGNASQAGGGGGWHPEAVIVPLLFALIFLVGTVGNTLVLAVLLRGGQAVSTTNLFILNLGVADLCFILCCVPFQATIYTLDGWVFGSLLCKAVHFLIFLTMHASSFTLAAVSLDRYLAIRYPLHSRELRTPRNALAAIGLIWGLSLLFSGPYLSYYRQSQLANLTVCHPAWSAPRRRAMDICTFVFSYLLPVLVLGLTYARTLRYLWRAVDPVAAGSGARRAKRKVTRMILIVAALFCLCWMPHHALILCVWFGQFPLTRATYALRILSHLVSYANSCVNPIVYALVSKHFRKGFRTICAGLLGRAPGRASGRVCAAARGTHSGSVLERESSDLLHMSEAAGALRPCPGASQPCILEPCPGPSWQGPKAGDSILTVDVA
The assay can be described thus: SRE luciferase activity in mGqi-hGALR2-SRE Luc expressing cell lines. The format is cell-based. Conditions: read-out: logEC50 (mean ± SEM) (converted). The protocol:
FIG. 11 provides a comparison of the in vitro potency of three different GALR2 agonist peptides with certain amino acid substitutions at the 4th amino acid position. Specifically, the GALR2 agonist peptides were as follows: (1) nWTaNAALYLFGPq-NH2 (D-alanine substitution; triangle), (2) PEG2-NWTeNAALYLFGPq-NH2 (D-glutamic acid; filled circle), and (3) PEG2-NWTrNAALYLFGPq-NH2 (D-arginine; open circle). Potency of the GALR2 agonists was assessed by measuring SRE luciferase activity in mGqi-hGALR2-SRE Luc expressing cell lines treated with the peptides.
In addition to solubility (described above in Example 8), the in vitro potency of the three GALR2 agonist peptides described in Example 7 was next assessed. Specifically, mGqi-hGALR2-SRE Luc expressing cell lines were treated with the different peptides and SRE luciferase activity was measured (as a measure of intracellular activity mediated by the GALR2 agonist peptides).

The target in assay [1] is T2, human galanin receptor type 2 (GALR2) (human, UniProt O43603 1-387).
T2 sequence: T1 sequence (O43603 1-387)
Description: cell-based or functional assay.

Non-standard residues stand in square brackets, D forms with d. Residues, ends and D or L forms follow the SMILES beside them. Primed or numbered codes have the meaning given here. No end group written: not given here. PEG2′ = not defined here

As for `C=CC[N+]1(C)CC[C@]23c4c5ccc(O)c4O[C@H]2C(=O)CC[C@@]3(O)[C@H]1C5` (stereo partly drawn) [naloxone methiodide, reference compound], the colonic transit time result with OIC mice is recorded as “decrease in colonic transit time”. Consider `CC(C)C[C@H](NC(=O)[C@H](C)NC(=O)[C@H](C)NC(=O)[C@H](CC(N)=O)NC(=O)[C@@H](C)NC(=O)[C@@H](NC(=O)[C@H](Cc1c[nH]c2ccccc12)NC(=O)[C@H](N)CC(N)=O)[C@@H](C)O)C(=O)N[C@@H](Cc1ccc(O)cc1)C(=O)N[C@@H](CC(C)C)C(=O)N[C@@H](Cc1ccccc1)C(=O)NCC(=O)N1CCC[C@H]1C(=O)N[C@H](CCC(N)=O)C(N)=O` [D-Alanine (SEQ ID NO: 87), nWTaNAALYLFGPq-NH2] (HELM PEPTIDE1{[dN].W.T.[dA].N.A.A.L.Y.L.F.G.P.[dQ].[am]}$$$$V2.0), for which, on hGALR2, the EC50 is 44.7 nM. As for [PEG2′]NWT[dR]NAALYLFGP[dQ]-NH2 [PEG2-NWTrNAALYLFGPq-NH2 ([PEG-dR4-dQ14]-GALR2 Agonist, SEQ ID NO: 89)], the “EC50 fold change against the D-alanine peptide, SRE luciferase activity” value in assay [1] is roughly 3.5 fold.

Source of the values: patent publication US20260200983A1, “USE OF GALR2 AGONISTS TO TREAT GASTROINTESTINAL AND/OR ENDOCRINE DISORDERS” (priority 2022, published 2026).
